Reference: PubChem BioAssay AID2060618 (Molecular Pharmacology Branch, DTP, NCI, 2025)
pIC50: −log10 of the molar value.

Test system: 454973-116-R2-J3-PDC spheroids, percent test/control viability
Experiment: Anticancer human tumor 454973-116-R2-J3-PDC patient-derived pancreatic carcinoma cell line growth inhibition [CLK]
Settings: spheroids with HUVEC and MSC; for pIC50: curve of first compound; for viability, T/C: stronger effect = lower value
Procedure, shortened: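 Multi-cell-type spheroids combined patient-derived tumor cells with HUVEC endothelial cells and human mesenchymal stem cells. Paired agents were dosed in half-log steps down from about clinical Cmax, or from 10 microM where Cmax was unknown.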

[1] = second compound 0.0316 µM, first compound 0.0316 µM
[2] = second compound 0.0316 µM, first compound 0.1 µM
[3] = second compound 0.0316 µM, first compound 0.316 µM
[4] = second compound 0.0316 µM, first compound 1 µM
[5] = second compound 0.1 µM, first compound 0.0316 µM
[6] = second compound 0.1 µM, first compound 0.1 µM
[7] = second compound 0.1 µM, first compound 0.316 µM
[8] = second compound 0.1 µM, first compound 1 µM
[9] = second compound 0.316 µM, first compound 0.0316 µM
[10] = second compound 0.316 µM, first compound 0.1 µM
[11] = second compound 0.316 µM, first compound 0.316 µM
[12] = second compound 0.316 µM, first compound 1 µM
[13] = second compound 1 µM, first compound 0.0316 µM
[14] = second compound 1 µM, first compound 0.1 µM
[15] = second compound 1 µM, first compound 0.316 µM
[16] = second compound 1 µM, first compound 1 µM
[17] = second compound 3.16 µM, first compound 0.0316 µM
[18] = second compound 3.16 µM, first compound 0.1 µM
[19] = second compound 3.16 µM, first compound 0.316 µM
[20] = second compound 3.16 µM, first compound 1 µM
[21] = second compound 10 µM, first compound 0.0316 µM
[22] = second compound 10 µM, first compound 0.1 µM
[23] = second compound 10 µM, first compound 0.316 µM
[24] = second compound 10 µM, first compound 1 µM
[25] = second compound 0.0316 µM, first compound 0.00316 µM
[26] = second compound 0.0316 µM, first compound 0.01 µM
[27] = second compound 0.1 µM, first compound 0.00316 µM
[28] = second compound 0.1 µM, first compound 0.01 µM
[29] = second compound 0.316 µM, first compound 0.00316 µM
[30] = second compound 0.316 µM, first compound 0.01 µM
[31] = second compound 1 µM, first compound 0.00316 µM
[32] = second compound 1 µM, first compound 0.01 µM
[33] = second compound 3.16 µM, first compound 0.00316 µM
[34] = second compound 3.16 µM, first compound 0.01 µM
[35] = second compound 10 µM, first compound 0.00316 µM
[36] = second compound 10 µM, first compound 0.01 µM
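Also: spheroids exposed to compounds for 7 days before readout.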

Structure (SMILES): CC(Nc1ccc2c(c1)OCCn1cc(N3C(=O)OCC3C(F)F)nc1-2)C(N)=O (stereo unspecified) + CNC(=O)c1ccc(Nc2nc(OC3CCCC3)c3c(-c4ccc5nc(C)oc5c4)c[nH]c3n2)c(OC)c1
- pIC50 (second compound 0.0316 µM): < 5.00
- pIC50 (second compound 0.1 µM): 5.30
- pIC50 (second compound 0.316 µM): 6.33
- pIC50 (second compound 1 µM): > 7.50
- pIC50 (second compound 3.16 µM): > 7.50
- pIC50 (second compound 10 µM): > 7.50
- viability, T/C [1]: 98.4%
- viability, T/C [2]: 79.5%
- viability, T/C [3]: 80%
- viability, T/C [4]: 70.7%
- viability, T/C (second compound 0.0316 µM, first compound 3.16 µM): 67.9%
- viability, T/C (second compound 0.0316 µM, first compound 10 µM): 46%
- viability, T/C [5]: 96.8%
- viability, T/C [6]: 86.4%
- viability, T/C [7]: 74.9%
- viability, T/C [8]: 59%
- viability, T/C (second compound 0.1 µM, first compound 3.16 µM): 58.6%
- viability, T/C (second compound 0.1 µM, first compound 10 µM): 43%
- viability, T/C [9]: 54.8%
- viability, T/C [10]: 54.4%
- viability, T/C [11]: 55.6%
- viability, T/C [12]: 41.2%
- viability, T/C (second compound 0.316 µM, first compound 3.16 µM): 36.8%
- viability, T/C (second compound 0.316 µM, first compound 10 µM): 30.3%
- viability, T/C [13]: 31.1%
- viability, T/C [14]: 26.9%
- viability, T/C [15]: 22.5%
- viability, T/C [16]: 19.7%
- viability, T/C (second compound 1 µM, first compound 3.16 µM): 16.9%
- viability, T/C (second compound 1 µM, first compound 10 µM): 13.5%
- viability, T/C [17]: 23.5%
- viability, T/C [18]: 26.3%
- viability, T/C [19]: 23.5%
- viability, T/C [20]: 21.5%
- viability, T/C (second compound 3.16 µM, first compound 3.16 µM): 14.7%
- viability, T/C (second compound 3.16 µM, first compound 10 µM): 13.5%
- viability, T/C [21]: 24.3%
- viability, T/C [22]: 22.8%
- viability, T/C [23]: 21.1%
- viability, T/C [24]: 19.7%
- viability, T/C (second compound 10 µM, first compound 3.16 µM): 13.3%
- viability, T/C (second compound 10 µM, first compound 10 µM): 11.1%

Structure (SMILES): CCN1CCN(Cc2ccc(Nc3ncc(F)c(-c4cc(F)c5nc(C)n(C(C)C)c5c4)n3)nc2)CC1 + CNC(=O)c1ccc(Nc2nc(OC3CCCC3)c3c(-c4ccc5nc(C)oc5c4)c[nH]c3n2)c(OC)c1
- pIC50 (second compound 0.0316 µM): < 6.00
- pIC50 (second compound 0.1 µM): < 6.00
- pIC50 (second compound 0.316 µM): > 8.50
- pIC50 (second compound 1 µM): > 8.50
- pIC50 (second compound 3.16 µM): > 8.50
- pIC50 (second compound 10 µM): > 8.50
- viability, T/C [25]: 103%
- viability, T/C [26]: 90.4%
- viability, T/C [1]: 82.8%
- viability, T/C [2]: 69.1%
- viability, T/C [3]: 67.2%
- viability, T/C [4]: 60.4%
- viability, T/C [27]: 96.8%
- viability, T/C [28]: 84.7%
- viability, T/C [5]: 79.2%
- viability, T/C [6]: 67.2%
- viability, T/C [7]: 63.4%
- viability, T/C [8]: 56.2%
- viability, T/C [29]: 44.8%
- viability, T/C [30]: 44.4%
- viability, T/C [9]: 54.5%
- viability, T/C [10]: 55.6%
- viability, T/C [11]: 52.5%
- viability, T/C [12]: 63.6%
- viability, T/C [31]: 34.4%
- viability, T/C [32]: 34.1%
- viability, T/C [13]: 39%
- viability, T/C [14]: 43%
- viability, T/C [15]: 43.3%
- viability, T/C [16]: 47%
- viability, T/C [33]: 30.6%
- viability, T/C [34]: 35.5%
- viability, T/C [17]: 37.2%
- viability, T/C [18]: 39.1%
- viability, T/C [19]: 38.5%
- viability, T/C [20]: 46.2%
- viability, T/C [35]: 27.5%
- viability, T/C [36]: 27%
- viability, T/C [21]: 33.5%
- viability, T/C [22]: 37.8%
- viability, T/C [23]: 41.8%
- viability, T/C [24]: 47.3%

Structure (SMILES): COc1c(OCCCN2CCOCC2)ccc2c3n(c(=NC(=O)c4cnc(N)nc4)nc12)CCN3 + CNC(=O)c1ccc(Nc2nc(OC3CCCC3)c3c(-c4ccc5nc(C)oc5c4)c[nH]c3n2)c(OC)c1
- pIC50 (second compound 0.0316 µM): 7.14
- pIC50 (second compound 0.1 µM): 7.17
- pIC50 (second compound 0.316 µM): 7.75
- pIC50 (second compound 1 µM): > 8.50
- pIC50 (second compound 3.16 µM): > 8.50
- pIC50 (second compound 10 µM): > 8.50
- viability, T/C [25]: 99.8%
- viability, T/C [26]: 93%
- viability, T/C [1]: 71.3%
- viability, T/C [2]: 39%
- viability, T/C [3]: 24.4%
- viability, T/C [4]: 8.47%
- viability, T/C [27]: 96.2%
- viability, T/C [28]: 79.6%
- viability, T/C [5]: 70.5%
- viability, T/C [6]: 37.5%
- viability, T/C [7]: 24.2%
- viability, T/C [8]: 8.81%
- viability, T/C [29]: 56.4%
- viability, T/C [30]: 54.7%
- viability, T/C [9]: 47%
- viability, T/C [10]: 26.1%
- viability, T/C [11]: 17.5%
- viability, T/C [12]: 7.41%
- viability, T/C [31]: 34.2%
- viability, T/C [32]: 30.5%
- viability, T/C [13]: 22.2%
- viability, T/C [14]: 13.1%
- viability, T/C [15]: 8.12%
- viability, T/C [16]: 4.63%
- viability, T/C [33]: 25.7%
- viability, T/C [34]: 24.6%
- viability, T/C [17]: 21.1%
- viability, T/C [18]: 14.8%
- viability, T/C [19]: 7.11%
- viability, T/C [20]: 5.46%
- viability, T/C [35]: 24.2%
- viability, T/C [36]: 22%
- viability, T/C [21]: 17.8%
- viability, T/C [22]: 13.3%
- viability, T/C [23]: 8.89%
- viability, T/C [24]: 3.02%
